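These data come from cells grown in 96-well plates and exposed to compound for 48 hours at five concentrations. At the GI50, growth is halved.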 Calls of active or inactive are those of the source. Cut-off read from the data, not from the text of the source: active = GI50 up to about 1.1 µM and inactive = higher. *1 amine or outer side, *2 acyl side, *3 side chain or, on linkers, in order; H or OH if unused. Where a SMILES comes first, the peptide text is derived from it. [ ]: non-standard residue; d: D form. The star is where a group is joined. X31 = CC(=O)N(C)SCC(N[*:1])C(=O)[*:2]; Fmoc = O=C(OCC1c2ccccc2-c2ccccc21)*; For = O=C*
What was measured:
Assay in all cases: DTP human tumour cell line panel, 48 h
PC-3 = test system: PC-3
MOLT-4 = test system: MOLT-4
MDA-N = test system: MDA-N
SK-MEL-28 = test system: SK-MEL-28
UACC-62 = test system: UACC-62
RXF 393 = test system: RXF 393
TK-10 = test system: TK-10
OVCAR-8 = test system: OVCAR-8
HT-29 = test system: HT-29
OVCAR-4 = test system: OVCAR-4
MDA-MB-435 = test system: MDA-MB-435
SNB-19 = test system: SNB-19
M14 = test system: M14
K562 = test system: K562
UO-31 = test system: UO-31
LOX IMVI = test system: LOX IMVI
RPMI-8226 = test system: RPMI-8226
ACHN = test system: ACHN
KM12 = test system: KM12
UACC-257 = test system: UACC-257

Measured: GI50

CC(=O)N(C)SCC(NC(=O)C(Cc1ccccc1)NC(=O)OCC1c2ccccc2-c2ccccc21)C(=O)NC(Cc1ccccc1)C(=O)NC(Cc1cn(C=O)c2ccccc12)C(=O)NC(CCCCNC(=O)OCC1c2ccccc2-c2ccccc21)C(=O)NC(C(=O)NC(CSN(C)C(C)=O)C(=O)NC(C(N)=O)C(C)O)C(C)O (stereo not given) (Fmoc-F[X31]FW(For)K(Fmoc)T[X31]T-NH2; configuration not given here)
inactive: PC-3 97.1 µM | MOLT-4 > 100 µM | MDA-N 36.7 µM | SK-MEL-28 > 100 µM | UACC-62 58.6 µM | RXF 393 20.5 µM | TK-10 24.2 µM | OVCAR-8 > 100 µM | HT-29 > 100 µM | OVCAR-4 > 100 µM | MDA-MB-435 94.4 µM | SNB-19 75.5 µM | M14 31 µM | K562 > 100 µM | UO-31 16.2 µM | LOX IMVI > 100 µM | RPMI-8226 > 100 µM | ACHN 37 µM | KM12 19.8 µM | UACC-257 90.2 µM

Source: ChEMBL document CHEMBL1201862, “PubChem BioAssay data set” (2004)
